From patent US6506339B1, “Method of sterilization” (Biomedical Design, Inc., priority 1997, dated 2003)

What was measured:
[1] = system: Bacillus subtilis (niger) spores; experiment: Sterilization without isopropyl alcohol with porcine aortic root tissue (Example 4C); assay type: cell-based; conditions: 40° C., 1.5×10^6 spores with root tissue, no isopropyl alcohol
Protocol: An experiment similar to that of Example 4A is carried out using slightly higher concentrations of EDC and including porcine aortic root tissue. Bacillus subtilis (niger) spores at levels of 1.5×10^6 are inoculated for approximately 10 minutes in sterile cups each containing root tissue. Solutions (50 ml) of 50, 75 and 100 mM EDC in 10 mM TRIS, 0.85% NaCl, pH 6.5 are prewarmed to 40° C. and then rapidly added to the tissues in the cups. The cups containing the tissue are incubated at 40° C. for 6, 9, 12, 24 and 48 hours; then, the solutions are diluted and filtered in order to collect microorganisms. The valve tissue is washed for 20 minutes in a reciprocating shaker in the presence of peptone water containing Tween 80 in order to extract all spores of microorganisms from the tissue. The solutions from the shakers are filtered through the respective filters to which the original solutions were applied. The filters are rinsed with a 0.1% peptone water solution and incubated on TSA plates for up to 14 days. The plates are examined daily for growth.

Bacillus Subtilis spores = experiment: Sterilization test, Bacillus subtilis spores in cups with or without fixed heart valves, 40° C. (Example 2); assay type: cell-based; set-up: key: (+) Indicates growth; (−) indicates no growth or complete kill; conditions: 20 mM EDC+1 mM Sulfo-NHS, 20% isopropyl alcohol
Protocol: Porcine aortic roots are fixed by cross-linking according to the method described in U.S. Pat. No. 5,447,536. After fixation, the valves are stored in 10 mM HEPES, 0.85% NaCl, 20% isopropyl alcohol, pH 7.4, at 4° C. The sterility tests described in the following examples are in most cases conducted in the presence of bioprosthetic heart valve tissue; when such tissue is not present, the solutions are simply filtered through a 0.45 micron filter attached to a funnel (filter funnel). The filters are then rinsed with peptone water to eliminate residual chemicals on the membrane that may prevent growth of the organisms tested. Such membrane filters are then incubated on TSA plates at about 32° to 33° C., e.g. 32.5° C. When an aortic valve is inoculated with microorganisms for test purposes and then submitted to sterilization, the solution is filtered as described above. The aortic valve tissue is then washed for 20 minutes in a reciprocating shaker in the presence of peptone water containing Tween 80 in order to extract all indigenous spores or microorganisms from the tissue. This solution is filtered and then incubated as described above. All microbiological testing is performed in a biological laminar flow hood to prevent contamination. The shrinkage temperature and the proteolytic (collagenase and protease) degradation tests are conducted as previously described in the '536 patent. Resistance to calcification is assessed by subdermal implantation of sterilized leaflets and aortic wall coupons in young rats, as also described in the '536 U.S. patent.
A sterilization process similar to Example 1 is carried out using Bacillus Subtilis spores (˜10^6) inoculated in sterile cups some of which contain cross-linked heart valves that had been fixed by a process according to U.S. Pat. No. 5,447,536. A 10 mM HEPES, 0.85% NaCl, pH 6.5 solution containing 20 mM EDC and 1 mM Sulfo-NHS in the presence of 20% isopropyl alcohol was added for various periods of time (treatment duration). The cups and the heart valves were maintained at 40° C. for the term of the treatment. The solutions were then filtered and the filters incubated for up to 7 days (incubation duration) at about 32-33° C. using Trypticase Soy Agar (TSA) plates. All inoculations were done in duplicate.

[2] = system: Mycobacterium chelonae ATCC 35752 vegetative cells; experiment: Sterilization in cups at about 38° C. (Example 6); assay type: cell-based; conditions: 25 mM EDC, 20% isopropanol, 1 Hour, inoculum Log 10 5.15
Protocol: (§1) In view of the foregoing verification, it was decided to test the effectiveness of the sterilization process against other bacteria using sterile cups. Added to each of the cups is 20 ml of 10 mM HEPES, 0.85%, Nacl, 20% isopropanol, pH 6.5, containing 25 mM EDC without any coupling enhancer, before the cups are placed in a incubator at about 38° C. When the solution temperature reached about 38° C., approximately 10^5-10^6 organisms were inoculated into the solution. The tests were carried out in triplicate. The following four isolated were tested in the form of sporous suspensions: Clostridium sporogenes ATCC 3584, Bacillus pumilus ATCC 27142, Chaetonium globosom ATCC 6205, and Microacus cinereus ATCC 16594. The following three isolates were tested as vegetative cells: Mycobacterium chelonae ATCC 35752, Methylbacterium extorquens ATCC 43645 and Trichosporon aquatile ATCC 22310. The inoculated systems were allowed to incubate for 1 hour, for 5 hours or for 24 hours, and the solutions were then filtered through a 0.45 micron filter. After rinsing, the filter was placed on a TSA plate as described in Example 1. Negative and positive controls indicate that the tests were valid. The results are set forth in Table D which follows wherein the number of CFUs in the inoculum is expressed as its log to the base 10, e.g. 3.4×10^5=5.5: […]

[3] = system: Bacillus pumilus ATCC 27142 spores; experiment: Sterilization in cups at about 38° C. (Example 6); assay type: cell-based; conditions: 25 mM EDC, 20% isopropanol
Protocol: as §1

[4] = system: Clostridium sporogenes ATCC 3584 spores; experiment: Sterilization in cups at about 38° C. (Example 6); assay type: cell-based; conditions: 25 mM EDC, 20% isopropanol
Protocol: as §1

[5] = system: Trichosporon aquatile ATCC 22310 vegetative cells; experiment: Sterilization in cups at about 38° C. (Example 6); assay type: cell-based; conditions: 25 mM EDC, 20% isopropanol, inoculum Log 10 4.3
Protocol: as §1

[6] = system: Methylbacterium extorquens ATCC 43645 vegetative cells; experiment: Sterilization in cups at about 38° C. (Example 6); assay type: cell-based, Methylobacterium extorquens; conditions: 25 mM EDC, 20% isopropanol, inoculum Log 10 6.94
Protocol: as §1

`CCN=C=NCCCN(C)C.Cl` [EDC, 1-ethyl-3(3-dimethylaminopropyl)carbodiimide hydrochloride] was tested, and the inactivation of spores ([1]; 50 mM EDC, 6 hours) was “only partial kill”, the inactivation of spores ([1]; 50 mM EDC, 9 hours) was “complete inactivation of the spores” and the inactivation of spores ([1]; 75 mM EDC, 6 hours) was “effectively inactivates these spores”. For the same compound, the inactivation of spores ([1]; 75 mM EDC, 9 hours) was “complete inactivation of the spores”, the inactivation of spores ([1]; 100 mM EDC, 6 hours) was “effectively inactivates these spores” and the inactivation of spores ([1]; 100 mM EDC, 9 hours) was “complete inactivation of the spores”. For the same compound, the “growth on TSA plates” value (Bacillus Subtilis spores; with valves, treatment 48 hours, incubation 1 Day) was “−”, the “growth on TSA plates” value (Bacillus Subtilis spores; with valves, treatment 48 hours, incubation 7 Days) was “−” and the “growth on TSA plates” value (Bacillus Subtilis spores; with valves, treatment 72 hours, incubation 1 Day) was “−”. The “growth on TSA plates” value (Bacillus Subtilis spores; with valves, treatment 72 hours, incubation 7 Days) was “−”, the “growth on TSA plates” value (Bacillus Subtilis spores; without valves, treatment 24 hours, incubation 1 Day) was “−” and the “growth on TSA plates” value (Bacillus Subtilis spores; without valves, treatment 24 hours, incubation 7 Days) was “−”. The “growth on TSA plates” value (Bacillus Subtilis spores; without valves, treatment 48 hours, incubation 1 Day) was “−”, the “growth on TSA plates” value (Bacillus Subtilis spores; without valves, treatment 48 hours, incubation 7 Days) was “−” and the “growth on TSA plates” value (Bacillus Subtilis spores; without valves, treatment 72 hours, incubation 1 Day) was “−”. For the same compound, the “growth on TSA plates” value (Bacillus Subtilis spores; without valves, treatment 72 hours, incubation 7 Days) was “−”, the “Log REDUCTION” value [2] was 5.15 and the “Log REDUCTION” value ([3]; 1 Hour, inoculum Log 10 5.45) was 3.68. For the same compound, the “Log REDUCTION” value ([3]; 5 Hours, inoculum Log 10 5.45) was 4.41, the “Log REDUCTION” value ([3]; 24 Hours, inoculum Log 10 5.22) was 5.22 and the “Log REDUCTION” value ([4]; 1 Hour, inoculum Log 10 4.6) was 2.12. The “Log REDUCTION” value ([4]; 5 Hours, inoculum Log 10 4.6) was 3.02, the “Log REDUCTION” value ([4]; 24 Hours, inoculum Log 10 3.65) was 3.65 and the “Log REDUCTION” value ([5]; 1 Hour) was 4.3. The “Log REDUCTION” value ([5]; 5 Hours) was 4.3, the “Log REDUCTION” value ([6]; 1 Hour) was 6.94 and the “Log REDUCTION” value ([6]; 5 Hours) was 6.94.
